Experimental data taken from patent publication US20230233569A1 (Revolution Medicines, Inc., priority 2020, published 2023).
Where two headings read alike, the source gives them in different places.

Columns and labels:
Assay in all cases: Ras-Raf disruption / FRET / MOA assay (BRAF RBD)
Assay type in all cases: biochemical
KRAS G12C = KRAS G12C (Homo sapiens, UniProt P01116+P62937, G12C); details: with Cyclophilin A
Procedure, shortened: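 TR-FRET read-out after 1.5 h with anti-His Eu-W1024 (10 nM) and anti-GST APC (50 nM), following 3 h at 25 °C of compound (top 30 μM, 3-fold, 10 points) with 25 μM Cyclophilin A, 12.5 nM GMPPNP-loaded K-Ras G12C and 50 nM BRAF RBD; IC50 reported.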

KRAS G12D = KRAS G12D (Homo sapiens, UniProt P01116+P62937, G12D); details: with Cyclophilin A
Sequence of KRAS G12D (P01116 1-169 isoform P01116-2 G12D limits assumed): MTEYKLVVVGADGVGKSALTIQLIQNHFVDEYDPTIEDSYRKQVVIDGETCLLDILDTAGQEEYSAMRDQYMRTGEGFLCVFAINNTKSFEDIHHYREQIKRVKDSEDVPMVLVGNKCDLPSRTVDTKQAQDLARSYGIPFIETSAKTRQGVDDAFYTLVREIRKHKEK
Sequence of KRAS G12D (P62937 whole entry): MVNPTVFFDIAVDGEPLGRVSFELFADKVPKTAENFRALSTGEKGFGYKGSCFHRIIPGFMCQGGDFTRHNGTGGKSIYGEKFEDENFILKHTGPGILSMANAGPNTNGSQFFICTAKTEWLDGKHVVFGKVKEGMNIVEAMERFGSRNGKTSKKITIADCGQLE
Procedure, shortened: (§1)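 Compound-induced Ras–Cyclophilin A ternary complex disrupting BRAF RBD binding, read as IC50 from reduced TR-FRET ratio relative to DMSO. Final: Ras-GMPPNP 12.5 nM, BRAF RBD 50 nM, Cyclophilin A 25 μM, top compound 30 μM (3-fold, 10 points); 3 h at 25 °C, then 1.5 h with detection antibodies.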

KRAS G13D = KRAS G13D (Homo sapiens, UniProt P01116+P62937, G13D); details: with Cyclophilin A
Sequence of KRAS G13D (P01116 1-169 isoform P01116-2 G13D limits assumed): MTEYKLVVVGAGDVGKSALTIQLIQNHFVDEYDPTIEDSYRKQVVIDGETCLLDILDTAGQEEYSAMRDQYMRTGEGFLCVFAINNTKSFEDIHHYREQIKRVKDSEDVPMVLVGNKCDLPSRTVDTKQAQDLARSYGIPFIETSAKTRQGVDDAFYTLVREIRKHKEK
Sequence of KRAS G13D (P62937 whole entry): as the sequence (P62937 whole entry) above
Procedure, shortened: as §1

KRAS G12V = KRAS G12V (Homo sapiens, UniProt P01116+P62937, G12V); details: with Cyclophilin A
Sequence of KRAS G12V (P01116 1-169 isoform P01116-2 G12V limits assumed): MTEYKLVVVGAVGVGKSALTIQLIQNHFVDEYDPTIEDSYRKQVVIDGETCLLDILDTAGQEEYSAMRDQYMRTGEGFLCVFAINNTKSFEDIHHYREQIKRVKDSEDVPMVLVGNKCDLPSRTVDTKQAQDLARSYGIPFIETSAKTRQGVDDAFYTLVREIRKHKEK
Sequence of KRAS G12V (P62937 whole entry): as the sequence (P62937 whole entry) above
Procedure, shortened: as §1

KRAS G13C = KRAS G13C (Homo sapiens, UniProt P01116+P62937, G13C); details: with Cyclophilin A
Sequence of KRAS G13C (P01116 1-169 isoform P01116-2 G13C limits assumed): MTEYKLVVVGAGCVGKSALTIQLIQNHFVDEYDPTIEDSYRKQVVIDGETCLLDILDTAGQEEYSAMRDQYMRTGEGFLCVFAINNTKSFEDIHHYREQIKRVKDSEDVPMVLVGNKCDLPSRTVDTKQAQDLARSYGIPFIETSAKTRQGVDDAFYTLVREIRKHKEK
Sequence of KRAS G13C (P62937 whole entry): as the sequence (P62937 whole entry) above
Procedure, shortened: as §1

KRAS WT = KRAS WT (Homo sapiens, UniProt P01116+P62937); details: with Cyclophilin A
Sequence of KRAS WT (P01116 1-169 isoform P01116-2 limits assumed): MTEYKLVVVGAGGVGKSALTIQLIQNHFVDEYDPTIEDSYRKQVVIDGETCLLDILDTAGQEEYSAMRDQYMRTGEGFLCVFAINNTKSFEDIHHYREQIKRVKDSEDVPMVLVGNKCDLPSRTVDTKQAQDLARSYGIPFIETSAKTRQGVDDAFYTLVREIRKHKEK
Sequence of KRAS WT (P62937 whole entry): as the sequence (P62937 whole entry) above
Procedure, shortened: as §1

NRAS WT = NRAS WT (Homo sapiens, UniProt P01111+P62937)
Sequence of NRAS WT (P01111 whole entry): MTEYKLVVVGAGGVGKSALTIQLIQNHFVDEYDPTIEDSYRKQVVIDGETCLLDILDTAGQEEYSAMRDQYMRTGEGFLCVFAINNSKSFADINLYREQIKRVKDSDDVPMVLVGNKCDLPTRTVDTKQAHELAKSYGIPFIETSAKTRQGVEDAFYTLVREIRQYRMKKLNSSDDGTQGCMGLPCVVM
Sequence of NRAS WT (P62937 whole entry): as the sequence (P62937 whole entry) above
Procedure, shortened: as §1

NRAS Q61R = NRAS Q61R (Homo sapiens, UniProt P01111+P62937, Q61R)
Sequence of NRAS Q61R (P01111 whole entry Q61R): as the sequence (P01111 whole entry) above, with Q61R counted along it
Sequence of NRAS Q61R (P62937 whole entry): as the sequence (P62937 whole entry) above
Procedure, shortened: as §1

KRAS Q61H = KRAS Q61H (Homo sapiens, UniProt P01116+P62937, Q61H)
Sequence of KRAS Q61H (P01116 1-169 isoform P01116-2 Q61H limits assumed): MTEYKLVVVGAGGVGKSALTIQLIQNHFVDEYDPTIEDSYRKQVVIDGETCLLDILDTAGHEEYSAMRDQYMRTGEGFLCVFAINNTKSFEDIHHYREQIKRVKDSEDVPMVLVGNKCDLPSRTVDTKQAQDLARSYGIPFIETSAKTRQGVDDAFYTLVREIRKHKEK
Sequence of KRAS Q61H (P62937 whole entry): as the sequence (P62937 whole entry) above
Procedure, shortened: as §1

NRAS Q61K = NRAS Q61K (Homo sapiens, UniProt P01111+P62937, Q61K)
Sequence of NRAS Q61K (P01111 whole entry Q61K): as the sequence (P01111 whole entry) above, with Q61K counted along it
Sequence of NRAS Q61K (P62937 whole entry): as the sequence (P62937 whole entry) above
Procedure, shortened: as §1

NRAS G12C = NRAS G12C (Homo sapiens, UniProt P01111+P62937, G12C)
Sequence of NRAS G12C (P01111 whole entry G12C): as the sequence (P01111 whole entry) above, with G12C counted along it
Sequence of NRAS G12C (P62937 whole entry): as the sequence (P62937 whole entry) above
Procedure, shortened: as §1

KRAS G12S = KRAS G12S (Homo sapiens, UniProt P01116+P62937, G12S); details: with Cyclophilin A
Sequence of KRAS G12S (P01116 1-169 isoform P01116-2 G12S limits assumed): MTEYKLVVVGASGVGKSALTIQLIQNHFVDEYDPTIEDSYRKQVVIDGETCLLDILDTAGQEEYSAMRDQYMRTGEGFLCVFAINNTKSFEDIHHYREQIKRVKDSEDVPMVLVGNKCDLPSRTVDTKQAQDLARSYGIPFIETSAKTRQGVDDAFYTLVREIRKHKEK
Sequence of KRAS G12S (P62937 whole entry): as the sequence (P62937 whole entry) above
Procedure, shortened: as §1

[1] = Ras-Raf disruption, read-out: KRAS G12C FRET data IC50
[2] = Ras-Raf disruption, read-out: KRAS G12D FRET data IC50
[3] = Ras-Raf disruption, read-out: KRAS G13D FRET data IC50
[4] = Ras-Raf disruption, read-out: KRAS G12V FRET data IC50
[5] = Ras-Raf disruption, read-out: KRAS G13C FRET data IC50
[6] = Ras-Raf disruption, read-out: KRAS WT FRET data IC50
[7] = NRAS WT, read-out: NRAS WT FRET data IC50
[8] = NRAS Q61R, read-out: NRAS Q61R FRET data IC50
[9] = KRAS Q61H, read-out: KRAS Q61H FRET data IC50
[10] = NRAS Q61K, read-out: NRAS Q61K FRET data IC50
[11] = NRAS G12C, read-out: NRAS G12C FRET data IC50
[12] = Ras-Raf disruption, read-out: KRAS G12S FRET data IC50

Sequence of KRAS G12C (P01116 1-169 isoform P01116-2 G12C limits assumed): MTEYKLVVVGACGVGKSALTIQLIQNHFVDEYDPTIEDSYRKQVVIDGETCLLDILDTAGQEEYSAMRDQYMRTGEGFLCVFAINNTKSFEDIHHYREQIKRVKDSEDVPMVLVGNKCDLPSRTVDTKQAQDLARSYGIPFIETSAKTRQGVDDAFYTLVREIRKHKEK
Sequence of KRAS G12C (P62937 whole entry): as the sequence (P62937 whole entry) above

SMILES	IC50 (KRAS G12C; [1])	IC50 (KRAS G12D; [2])	IC50 (KRAS G13D; [3])	IC50 (KRAS G12V; [4])	IC50 (KRAS G13C; [5])	IC50 (KRAS WT; [6])	IC50 (NRAS WT; [7])	IC50 (NRAS Q61R; [8])	IC50 (KRAS Q61H; [9])	IC50 (NRAS Q61K; [10])	IC50 (NRAS G12C; [11])	IC50 (KRAS G12S; [12])	other results
CCn1c(-c2cccnc2[C@H](C)OC)c2c3cc(ccc31)-c1cc(O)cc(c1)C[C@H](NC(=O)[C@H](C(C)C)N(C)C(=O)[C@@H]1CCCN(C(=O)[C@H]3CN3)C1)C(=O)N1CCC[C@H](N1)C(=O)OCC(C)(C)C2 (atropisomer, axis not shown) [Example 237]	10 to 100 nM	100 to 1000 nM	100 to 1000 nM	100 to 1000 nM	10 to 100 nM	10 to 100 nM	10 to 100 nM	100 to 1000 nM	10 to 100 nM	100 to 1000 nM	10 to 100 nM	10 to 100 nM	–
CCn1c(-c2cccnc2[C@H](C)OC)c2c3cc(ccc31)-c1cc(O)cc(c1)C[C@H](NC(=O)[C@H](C(C)C)N(C)C(=O)C1CN(S(=O)(=O)[C@H]3CN3C)C1)C(=O)N1CCC[C@H](N1)C(=O)OCC(C)(C)C2 (single isomer, unassigned) [Example 117]	10 to 100 nM	1000 to 10000 nM	100 to 1000 nM	100 to 1000 nM	10 to 100 nM	100 to 1000 nM	10 to 100 nM	100 to 1000 nM	10 to 100 nM	100 to 1000 nM	100 to 1000 nM	100 to 1000 nM	–
CCn1c(-c2cccnc2[C@H](C)OC)c2c3cc(ccc31)-c1cc(O)cc(c1)C[C@H](NC(=O)[C@H](C(C)C)N1CC[C@H](NC(=O)[C@H]3CN3)C1=O)C(=O)N1CCC[C@H](N1)C(=O)OCC(C)(C)C2 [Example 213]	–	–	–	–	–	–	–	–	–	–	–	–	IC50 (KRAS G12C; KRAS G12C FRET data IC50, Ras-Raf disruption): 10 to 100 nM; IC50 (KRAS G12D; KRAS G12D FRET data IC50, Ras-Raf disruption): 1000 to 10000 nM; IC50 (KRAS G13D; KRAS G13D FRET data IC50, Ras-Raf disruption): 100 to 1000 nM; IC50 (KRAS G12V; KRAS G12V FRET data IC50, Ras-Raf disruption): 100 to 1000 nM; IC50 (KRAS G13C; KRAS G13C FRET data IC50, Ras-Raf disruption): 10 to 100 nM; IC50 (KRAS WT; KRAS WT FRET data IC50, Ras-Raf disruption): 10 to 100 nM; IC50 (NRAS WT): 10 to 100 nM; IC50 (NRAS Q61R): 100 to 1000 nM; IC50 (KRAS Q61H): 10 to 100 nM; IC50 (NRAS Q61K): 100 to 1000 nM; IC50 (NRAS G12C; NRAS G12C FRET data IC50, NRAS G12C): 10 to 100 nM; IC50 (KRAS G12S; KRAS G12S FRET data IC50, Ras-Raf disruption): 100 to 1000 nM
CCn1c(-c2cccnc2[C@H](C)OC)c2c3cc(ccc31)-c1cc(O)cc(c1)C[C@H](NC(=O)[C@H](C(C)C)N(C)C(=O)[C@@H]1CCN(C(=O)[C@@H]3CN3)[C@@H]1C)C(=O)N1CCC[C@H](N1)C(=O)OCC(C)(C)C2 (atropisomer, axis not shown) [Example 208]	10 to 100 nM	100 to 1000 nM	100 to 1000 nM	10 to 100 nM	10 to 100 nM	10 to 100 nM	10 to 100 nM	100 to 1000 nM	10 to 100 nM	100 to 1000 nM	10 to 100 nM	10 to 100 nM	–
CCn1c(-c2cccnc2[C@H](C)OC)c2c3cc(ccc31)-c1csc(n1)C[C@H](NC(=O)[C@H](C(C)C)N(C)C(=O)N1CCC[C@H](N(C)C(=O)[C@@H]3CN3)C1)C(=O)N1CCC[C@H](N1)C(=O)OCC(C)(C)C2 (atropisomer, axis not shown) [Example 292]	100 to 1000 nM	1000 to 10000 nM	1000 to 10000 nM	100 to 1000 nM	100 to 1000 nM	100 to 1000 nM	100 to 1000 nM	100 to 1000 nM	100 to 1000 nM	100 to 1000 nM	100 to 1000 nM	100 to 1000 nM	–
CCn1c(-c2cccnc2[C@H](C)OC)c2c3cc(ccc31)-c1cc(O)cc(c1)C[C@H](NC(=O)[C@H](C(C)C)N(C)C(=O)C1CCN(S(=O)(=O)[C@@H]3CN3C)CC1)C(=O)N1CCC[C@H](N1)C(=O)OCC(C)(C)C2 (single isomer, unassigned) [Example 119]	10 to 100 nM	1000 to 10000 nM	100 to 1000 nM	100 to 1000 nM	10 to 100 nM	100 to 1000 nM	100 to 1000 nM	1000 to 10000 nM	10 to 100 nM	100 to 1000 nM	100 to 1000 nM	100 to 1000 nM	–
CCn1c(-c2cccnc2[C@H](C)OC)c2c3cc(ccc31)-c1csc(n1)C[C@H](NC(=O)[C@H](C(C)C)N(C)C(=O)N(C)[C@H]1CCN(C(=O)[C@H]3CN3)C1)C(=O)N1CCC[C@H](N1)C(=O)OCC(C)(C)C2 (atropisomer, axis not shown) [Example 296]	100 to 1000 nM	1000 to 10000 nM	1000 to 10000 nM	1000 to 10000 nM	100 to 1000 nM	100 to 1000 nM	100 to 1000 nM	100 to 1000 nM	100 to 1000 nM	100 to 1000 nM	100 to 1000 nM	100 to 1000 nM	–
CCn1c(-c2cccnc2[C@H](C)OC)c2c3cc(ccc31)-c1cc(O)cc(c1)C[C@H](NC(=O)[C@H](C(C)C)N(C)C(=O)N1CC[C@H](N(C)C(=O)[C@@H]3CN3)C1)C(=O)N1CCC[C@H](N1)C(=O)OCC(C)(C)C2 (atropisomer, axis not shown) [Example 255]	10 to 100 nM	100 to 1000 nM	100 to 1000 nM	100 to 1000 nM	10 to 100 nM	100 to 1000 nM	10 to 100 nM	100 to 1000 nM	10 to 100 nM	100 to 1000 nM	10 to 100 nM	10 to 100 nM	–
CCn1c(-c2cccnc2[C@H](C)OC)c2c3cc(ccc31)-c1csc(n1)C[C@H](NC(=O)[C@H](C(C)C)N(C)C(=O)N(C)CC1CN(C(=O)[C@@H]3CN3)C1)C(=O)N1CCC[C@H](N1)C(=O)OCC(C)(C)C2 (atropisomer, axis not shown) [Example 294]	10 to 100 nM	100 to 1000 nM	100 to 1000 nM	100 to 1000 nM	100 to 1000 nM	100 to 1000 nM	100 to 1000 nM	100 to 1000 nM	10 to 100 nM	10 to 100 nM	10 to 100 nM	100 to 1000 nM	–
CCn1c(-c2cccnc2[C@H](C)OC)c2c3cc(ccc31)-c1cc(O)cc(c1)C[C@H](NC(=O)[C@H](C(C)C)N(C)C(=O)[C@H]1C[C@H]3CC[C@@H](C1)N3C(=O)[C@@H]1CN1)C(=O)N1CCC[C@H](N1)C(=O)OCC(C)(C)C2 (atropisomer, axis not shown) [Example 246]	10 to 100 nM	1000 to 10000 nM	100 to 1000 nM	100 to 1000 nM	10 to 100 nM	10 to 100 nM	10 to 100 nM	100 to 1000 nM	< 10 nM	10 to 100 nM	10 to 100 nM	100 to 1000 nM	–
CCn1c(-c2cccnc2[C@H](C)OC)c2c3cc(ccc31)-c1cc(O)cc(c1)C[C@H](NC(=O)[C@H](C(C)C)N(C)C(=O)[C@@H]1CCN(C(=O)[C@H]3CN3)[C@@H]1C)C(=O)N1CCC[C@H](N1)C(=O)OCC(C)(C)C2 (atropisomer, axis not shown) [Example 207]	10 to 100 nM	100 to 1000 nM	100 to 1000 nM	10 to 100 nM	10 to 100 nM	10 to 100 nM	10 to 100 nM	100 to 1000 nM	10 to 100 nM	100 to 1000 nM	10 to 100 nM	10 to 100 nM	–
CCn1c(-c2cccnc2[C@H](C)OC)c2c3cc(ccc31)-c1cc(O)cc(c1)C[C@H](NC(=O)[C@H](C(C)C)N(C)C(=O)N1CCN(C(=O)[C@@H]3CN3)CC1=O)C(=O)N1CCC[C@H](N1)C(=O)OCC(C)(C)C2 (atropisomer, axis not shown) [Example 205]	10 to 100 nM	1000 to 10000 nM	100 to 1000 nM	100 to 1000 nM	< 10 nM	10 to 100 nM	10 to 100 nM	100 to 1000 nM	10 to 100 nM	100 to 1000 nM	10 to 100 nM	100 to 1000 nM	–
